According to ChEMBL document CHEMBL1649366, “Self-organizing molecular field analysis on human β-secretase nonpeptide inhibitors: 5, 5-disubstituted aminohydantoins” (Eur J Med Chem, 2011):
pIC50: −log10 of the molar value.

Molecular target: Beta-secretase 1 (Homo sapiens, UniProt P56817)
Experiment: Inhibition of human BACE1

Sequence of Beta-secretase 1 (P56817 whole entry): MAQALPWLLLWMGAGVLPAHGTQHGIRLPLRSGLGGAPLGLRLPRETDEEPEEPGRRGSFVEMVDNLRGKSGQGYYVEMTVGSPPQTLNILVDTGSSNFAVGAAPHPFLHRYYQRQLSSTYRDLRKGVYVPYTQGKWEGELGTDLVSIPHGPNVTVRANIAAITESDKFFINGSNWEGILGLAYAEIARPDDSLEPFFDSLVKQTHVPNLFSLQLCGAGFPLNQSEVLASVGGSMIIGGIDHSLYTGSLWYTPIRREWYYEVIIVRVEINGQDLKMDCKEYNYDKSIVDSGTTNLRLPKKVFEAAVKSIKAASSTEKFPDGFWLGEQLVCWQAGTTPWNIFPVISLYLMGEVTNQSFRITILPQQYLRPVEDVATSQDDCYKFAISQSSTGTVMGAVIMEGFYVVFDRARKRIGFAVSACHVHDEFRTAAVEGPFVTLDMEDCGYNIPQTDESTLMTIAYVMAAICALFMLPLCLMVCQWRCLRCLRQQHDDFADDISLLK

pIC50	SMILES
4.70	NC1=NC(c2ccccc2)(c2ccccc2)C(=O)N1
7.52	CCc1cc(C2(c3cccc(-c4cncnc4)c3)N=C(N)N(C)C2=O)cc(CC)n1 (centres undefined)
5.10	CCN1C(=O)C(c2ccccc2)(c2ccccc2)N=C1N
5.32	NC1=NC(c2ccccc2)(C2CCCCC2)C(=O)N1CCCO (centres undefined)
